Results reported in US20210106703A1, “RADIOIMMUNOCONJUGATES IN COMBINATION WITH OTHER DRUGS AS TREATMENT AGAINST NHL” (Nordic Nanovector ASA, priority 2017, published 2021).
Where two headings read alike, the source gives them in different places.

Tests used:
SUDHL4 cells = experiment: Alamar Blue cytotoxicity study; assay type: cell-based, human; settings: for IC50: Homo sapiens; for Combination Index (Chou-Talalay): 120 h
Protocol: Cells were incubated with 0.25, 0.5, 1, 2.5 or 5 μg/ml of Humalutin in cell culture flasks and incubated at 37° C./5% CO2. After 18-20 hours cells were washed and resuspended in fresh medium. Cell bound activity after washing was measured using a calibrated gamma detector (Cobra II auto-gamma detector, Packard Instrument Company, Meriden, Conn., USA). Cell concentration and viability was also measured after washing using Guava ViaCount Cell Dispersal Reagent for Flow Cytometry (Merck GaA, Darmstadt, Germany) and measured in a Guava EasyCyte 12HT (Merck KGaA, Darmstadt, Germany) to determine how well the cells survived the incubation. Cells were seeded in 96 well plates. […]
Cells were treated with either Humalutin, venetoclax or a combination of both and seeded into 96 well-plates. At each time point after treatment, cells were incubated with Alamar Blue (Thermo Fisher, DALL1100) for 4 hours and fluorescence measurements were performed using a multiplate reader Fluoroskan ascent FL to assess cell proliferation and viability. All experiments were done in duplicates using 2 samples in each experiment. Data were normalized to the untreated controls.
Cells were incubated with either 0, 0.5 μg/ml or 1 μg/ml Humalutin and the same procedure as described before for treatment with Humalutin alone and venetoclax alone was followed.
The Chou-Talalay model was used for synergy calculations using the Compusyn software. R (goodness of fit) was calculated for the individual treatments and should be over 0.90 in in vitro culture experiments in order to use with confidence the calculated combination index (CI). The CI is an indication of synergy: 0-0.9 is considered synergy. Synergysm grading was used as described in WO2006004917A2.
Cells were incubated with 0.25, 0.5, 1, 2.5 or 5 μg/ml of Humalutin in cell culture flasks and incubated at 37° C./5% CO2. After 18-20 hours cells were washed and resuspended in fresh medium. Cell bound activity after washing was measured using a calibrated gamma detector (Cobra II auto-gamma detector, Packard Instrument Company, Meriden, Conn., USA). Cell concentration and viability were also measured after washing using Guava ViaCount Cell Dispersal Reagent for Flow Cytometry (Merck GaA, Darmstadt, Germany) and measured in a Guava EasyCyte 12HT (Merck KGaA, Darmstadt, Germany) to determine how well the cells survived the incubation. Cells were seeded in 96 well plates. Alamar blue viability measurements were performed 120 h after seeding.
Cells were incubated with either 0 (control), 0.5 μg/ml or 1 μg/ml Humalutin for 18 to 20 hours. Cells were then washed and resuspended in fresh medium.

[1] = tested on: CD133 and CD44 at the DOHH2 cell surface; experiment: Expression of stem cell markers after RIT (flow cytometry); assay type: cell-based, human; settings: DOHH2, 6 MBq/mL for 18 h, up to 9 days post-RIT
Protocol: Cells were harvested at 0, 2 h, 18 h and each day from 1 d to 10 d of RIT. At each time point, cells were fixed with PFA 4% for 10 minutes, washed twice with PBS and sterilely stored in PBS at 4° C. Stem cell markers were detected with anti-CD133-FITC (clone: AC133, Milteniy) and anti-CD44-APC (clone: IM7, Merck Millipore). 0.5×10^6 cells were saturated for 1 h in PBS-BSA 0.5%. Next cells were centrifuged and incubated with anti-CD133-FITC (2 μL) and anti-CD44-APC (0.125 μg) for 1 h at room temperature in the dark. Finally, cells were rinsed twice and analysed using Gallios® flow cytometer (Beckman Coulter).
For a preliminary study, investigation of the expression of CD133 and CD44 at the surface of cells treated for 18 h with 6 MBq/mL ^177Lu-lilotomab and ^177Lu-rituximab was done.

[2] = tested on: CD3-/CD20+ cells from biopsies of patients with DLBCL or FL; settings: 4 patient biopsies, 18 h exposure, day 4
Protocol: Frozen human biopsies from patients with DLBCL or FL were obtained from CHU de Montpellier Plateforme CRB/Hemodiag. Typically, cells were defrosted and grown at 0.5×10^6 cells/mL in 12-well plates at 37° C. in a humidified atmosphere of 95% air/5% CO2. Culture medium consisted of RPMI medium supplemented with 20% heat-inactivated fetal bovine serum, antibiotics ([…] penicillin and 100 μg/ml streptomycin), 50 ng/mL CD40L (His tagged; R&D system) and 5 μg/mL anti-his-tag antibody (R&D system, Abingdon, UK). After 5 h, they were treated with increasing amount of ^177Lu-lilotomab (0 to 6 MBq/mL) combined or not with MK-1775 or PD-166285 (1 μM) for 18 h. At the end of incubation, 50% of cells were analyzed by flow cytometry and the remaining cells were collected, centrifuged and washed twice with medium before being seeded in 12-well plates for 3 days more. After 3 days, cells were collected and analyzed by flow cytometry. Live/Dead fixable dead cell stain (Fisher scientific), anti-CD45, CD3, CD19, CD20 and CD10 mAbs (BD Pharmigen, Le pont de Claix, France) and anti-Kappa mAb (DAKO, Les Ulis, France) were used and analyzed by flow cytometry to determine quantity and proportion of tumor and non-tumor cells alive.

Ramos cells = experiment: Apoptosis induction (Annexin V/7-AAD, Muse flow cytometer); assay type: cell-based, human; settings: 6 MBq/mL radiolabelled mAb for 18 h, peak time 72 h
Protocol: (§1) Cells were harvested at 0, 2 h, 18 h, 1 d, 2 d, 3 d of RIT. At each time point, apoptosis was detected with […] from Merck Millipore (Annexin V Kit with 7-AAD) in the dark for 30 min at room temperature before analysis using Muse® flow cytometer

Rec-1 cells = experiment: as above; assay type: cell-based, human; settings: Rec-1, 6 MBq/mL radiolabelled mAb for 18 h, peak time 72 h
Protocol: as §1

`CC1(C)CCC(CN2CCN(c3ccc(C(=O)NS(=O)(=O)c4ccc(NCC5CCOCC5)c([N+](=O)[O-])c4)c(Oc4cnc5[nH]ccc5c4)c3)CC2)=C(c2ccc(Cl)cc2)C1` [venetoclax] was tested, and the IC50 (SUDHL4 cells; SU-DHL-4, read-out: IC50 at 120 h, SUDHL-4, 120 h incubation after seeding) was 2.42 µM, the IC50 (SUDHL4 cells; SU-DHL-4, SUDHL4, 72 h incubation after seeding, read-out: IC50) was 3.66 µM and the “Combination Index (Chou-Talalay)” value (SUDHL4 cells; SUDHL-4, drug 10 μM + Humalutin 0.5 μg/ml) was 2.43. The “Combination Index (Chou-Talalay)” value (SUDHL4 cells; SUDHL-4, drug 10 μM + Humalutin 1 μg/ml) was 0.09, the “Combination Index (Chou-Talalay)” value (SUDHL4 cells; SUDHL-4, drug 40 μM + Humalutin 0.5 μg/ml) was 3.77 and the “Combination Index (Chou-Talalay)” value (SUDHL4 cells; SUDHL-4, drug 40 μM + Humalutin 1 μg/ml) was 0.11. For the same molecule, the “Combination Index (Chou-Talalay)” value (SUDHL4 cells; SUDHL-4, drug 80 μM + Humalutin 0.5 μg/ml) was 0.50, the “Combination Index (Chou-Talalay)” value (SUDHL4 cells; SUDHL-4, drug 80 μM + Humalutin 1 μg/ml) was 0.06 and the “Combination Index (Chou-Talalay)” value (SUDHL4 cells; SUDHL-4, drug 100 μM + Humalutin 0.5 μg/ml) was 0.83. For the same molecule, the “Combination Index (Chou-Talalay)” value (SUDHL4 cells; SUDHL-4, drug 100 μM + Humalutin 1 μg/ml) was 0.02, the “Combination Index (Chou-Talalay)” value (SUDHL4 cells; SUDHL-4, venetoclax 0.25 + Humalutin 0.5 μg/ml) was 0.01 and the “Combination Index (Chou-Talalay)” value (SUDHL4 cells; SUDHL-4, venetoclax 0.25 + Humalutin 1 μg/ml) was 0.06. The “Combination Index (Chou-Talalay)” value (SUDHL4 cells; SUDHL-4, venetoclax 0.5 + Humalutin 0.5 μg/ml) was 0.003, the “Combination Index (Chou-Talalay)” value (SUDHL4 cells; SUDHL-4, venetoclax 0.5 + Humalutin 1 μg/ml) was 0.01 and the “Combination Index (Chou-Talalay)” value (SUDHL4 cells; SUDHL-4, venetoclax 1 + Humalutin 0.5 μg/ml) was 0.01. For the same molecule, the “Combination Index (Chou-Talalay)” value (SUDHL4 cells; SUDHL-4, venetoclax 1 + Humalutin 1 μg/ml) was 0.09, the “Combination Index (Chou-Talalay)” value (SUDHL4 cells; SUDHL-4, venetoclax 2.5 + Humalutin 0.5 μg/ml) was 0.02 and the “Combination Index (Chou-Talalay)” value (SUDHL4 cells; SUDHL-4, venetoclax 2.5 + Humalutin 1 μg/ml) was 0.12.

B1: Lutetium-177 [^177Lu]-lilotomab satetraxetan (conjugate, chains of the INN, looked up)
VH: EIQLQQSGPELVKPGASVKVSCKASGYSFTDYNMYWVKQSHGKSLEWIGYIDPYNGDTTYNQKFKGKATLTVDKSSSTAFIHLNSLTSEDSAVYYCARSPYGHYAMDYWGQGTSVTVSS
VL: DIVMTQSHKLLSTSVGDRVSITCKASQDVSTAVDWYQQKPGQSPKLLINWASTRHTGVPDRFTGSGSGTDYTLTISSMQAEDLALYYCRQHYSTPFTFGSGTKLEIK
modifications: 177Lu satetraxetan chelator conjugate
For B1, the “Proportion of cells expressing CD44 and CD133” value [1] was “strongly increased”, the “Proportion of tumor cells” value [2] was “reduced the proportion of tumor cells” and the Apoptosis level (Ramos cells) was 33±8%. For the same molecule, the Apoptosis level (Rec-1 cells) was 67±18%.
